Source: paper PMC10508264, “Exploring the antioxidant, antimicrobial, cytotoxic and biothermodynamic properties of novel morpholine derivative bioactive Mn(II), Co(II) and Ni(II) complexes – combined experimental and theoretical measurements towards DNA/BSA/SARS-CoV-2 3CL^Pro” (RSC Medicinal Chemistry, 2023)

Assays:
[1] = test system: Salmonella enterica serovar typhi; assay: Agar disc diffusion, strain C; format: cell-based; settings: for Diameter of clear zone inhibition: control 6 mm
Staphylococcus Aureus = assay: Agar disc diffusion, strain F; format: cell-based; set-up: Inhibition%: concentration or dose not given beside the values; settings: for Diameter of clear zone inhibition: control 6 mm
Shigella flexneri = assay: Agar disc diffusion, strain E; format: cell-based; set-up: Inhibition%: concentration or dose not given beside the values; settings: for Diameter of clear zone inhibition: control 6 mm
Pseudomonas aeruginosa = assay: Agar disc diffusion, strain D; format: cell-based; set-up: Inhibition%: concentration or dose not given beside the values; settings: for Diameter of clear zone inhibition: control 6 mm
Bacillus cereu = assay: Agar disc diffusion, strain G; format: cell-based; set-up: Inhibition%: concentration or dose not given beside the values; settings: for Diameter of clear zone inhibition: control 6 mm
[2] = test system: Salmonella enterica serovar typhi; assay: Agar disc diffusion, strain B; format: cell-based; settings: for Diameter of clear zone inhibition: control 6 mm
Escherichia coli = assay: Agar disc diffusion, strain A; format: cell-based; set-up: Inhibition%: concentration or dose not given beside the values; settings: for Diameter of clear zone inhibition: control (DMSO) 6 mm
Candida albicans = assay: Agar disc diffusion, strain I; format: cell-based; set-up: Inhibition%: concentration or dose not given beside the values; settings: for Diameter of clear zone inhibition: control 6 mm
Aspergillus niger = assay: Agar disc diffusion, strain H; format: cell-based; set-up: Inhibition%: concentration or dose not given beside the values; settings: for Diameter of clear zone inhibition: control 6 mm
Mucor indicus = assay: Agar disc diffusion, strain J; format: cell-based; set-up: Inhibition%: concentration or dose not given beside the values; settings: for Diameter of clear zone inhibition: control 6 mm
[3] = Nitric oxide scavenging assay; format: biochemical; settings: 546 nm
[4] = DPPH radical scavenging assay; format: biochemical; settings: for % Inhibition, DPPH: 517 nm
[5] = Superoxide scavenging assay; settings: 590 nm
[6] = Hydroxyl radical scavenging assay; format: biochemical; settings: for % Inhibition, hydroxyl radical: 230 nm
HepG2 = assay: MTT cell viability assay, HepG2; format: cell-based, human; settings: HepG2, 72 h of exposure
MCF-7 = assay: MTT cell viability assay, MCF-7; format: cell-based, human; settings: MCF-7, 72 h of exposure
A549 = assay: MTT cell viability assay, A549; format: cell-based, human; settings: A549, 72 h of exposure
NHDF = assay: MTT cell viability assay, NHDF; format: cell-based, human; settings: NHDF normal cells, 72 h of exposure
Experimental: Cellular viability or metabolic properties can be measured using the MTT assay, which is a powerful and consistent method for cytotoxic properties. […] As per the colorimetric approach, the IC50 values of all compounds were evaluated via the percentage of cell viability or inhibition of growth.[128] […] However, complexes (2) and (3) were exposed to similar cytotoxic potential as the others,[129] which induces apoptosis due to their ability to produce ROS more efficiently than the free ligand. […] The cytotoxic effectiveness is dependent upon the DNA binding modalities, the structure–activity relationship, the drug concentrations, and the incubation period exposure.[130] […] Coordination between the ligands and metal ions results in charge equilibration, which diminishes the polarity of the metal ions and also causes the ability of the test complexes to pass via the cell membrane lipid layer in accordance with Tweedy's chelation theory. Thus, it inhibits the synthesis of cell-wall/protein/nucleic acid. Additionally, the results of DNA binding tests using these complexes, including gel electrophoresis, UV-vis spectral titration, hydrodynamics, emission, and CV findings, were in good agreement with the findings of cytotoxicity.[131] Expressions eqn (44) and (45) were applied to measure the percentage of growth inhibition and cell viability (Table 10). In this case, complexes (2) and (3) have been proven to have greater biological efficiency than the others. Cytotoxicity depends on not only the hydrophilicity or lipophilicity and permeability, which only assist the crossing of the cell membrane but are not responsible for cell death, but also on several other factors, including the Lewis acid character, overall stability, solubility, conductivity, compatibility, length of the metal–ligand bond, overall charge, electron density, reduction potential, dipole moment, intermolecular hydrogen bonds, proton transfer equilibrium, and coordination environment. These significant elements might also contribute to the increased biological activity. Moreover, cobalt is also generally not considered to be a very toxic element, and its coordination complexes have fascinating redox and magnetic characteristics that fit them for a remarkable range of biological and medical uses. […] Moreover, it is possible to intelligently adjust these factors to successfully target a desired pathway or biomolecule. Designing such well-controlled and selective cobalt-based therapeutics may benefit from a mechanistic understanding of the varied bioactivities of cobalt complexes. Thus, knowing the mechanism of action can direct the advancement of prospective cobalt treatments to clinical trial.[133]
2.5. Assessment of in-vitro antimicrobial properties
bacteria and 7 days for fungal strains.

CT-DNA [7] = assay: DNA thermal denaturation / biothermodynamic properties; format: binding; settings: adduct vs CT-DNA alone
CT-DNA [8] = assay: DNA binding by viscometric (hydrodynamic) technique
Experimental: The hydrodynamic properties were measured using an Ostwald viscometer with the help of a thermostat (25 ± 0.1 °C). The specific viscosity of DNA was also measured in the presence and absence of the test samples.[13,30]
Generally, when the major/minor groove binding, electrostatic, partial, and non-classical interaction modes are involved between chemical substances and DNA base pairs, the final DNA relative viscosity remains unchanged or undergoes a very negligible change due to reducing the contour length of DNA. When the intercalation binding modes are involved between a chemical substance and DNA base pairs via π–π stacking interactions and hydrophobic forces, an increase in relative viscosity is noted due to a rise in the contour length of DNA. Moreover, for the purpose of observing alterations in the CT-DNA helical structure, the viscosity findings for CT-DNA, various concentrations of chemical substances present, and EtBr were recorded. It was also noted that the absolute viscosity rose consistently along with the incremental concentration of each substance at the fixed DNA concentration. As a result of the strong binding mode of intercalation, the contour length of the double-helix DNA rises.[72] The obtained results are also compared with those of the classical intercalator (EB). The affinity interaction and their slope values were observed from the relative specific viscosity (η/η0)^1/3 plotted as a straight line contrasting [compound]/[DNA] and absolute specific viscosity of DNA in the presence or absence of chemical substances was evaluated using eqn (11) (Table 3). In the experiment, it was clearly noted that the slope values for all samples increased due to the rising binding affinity. The evaluated slopes were in the following sequence: (EB) 1.215 > (2) 0.860 > (3) 0.801 > (1) 0.662 > (HL) 0.490 (Fig. S21 ^† and Table 3). […] Due to the existence of 2,2′-bipyridine and the morpholine-fused aromatic planar systems, compounds can interact with DNA robustly via intercalation. The outcomes agreed with the observed outcomes of electronic absorption spectral characteristics.
11 [drawing 21] where η and η0 represent the specific viscosity of DNA in the presence of the complex and the specific viscosity of DNA alone, t0, tDNA and tcomplex represent the average flow time of the Tris–HCl buffer solution, the average flow time of the DNA alone solution, and the average flow time of DNA interacted with the samples, respectively. Error limit ± 2.5% (P < 0.025). […]
2.2.4. Assessment of DNA affinity by hydrodynamic technique
Hydrodynamic properties were performed using an Ostwald viscometer with the help of a thermostat (25 ± 0.1 °C). The experiment was performed of all samples, including ethidium bromide at various concentrations (20, 40, 60, 80, 100 µM) and each test compound was mixed with the deoxyribonucleic acid solution (100 µM) in the Ostwald viscometer. With a help of digital stopwatch, average flow time was gauged three times for each addition, and the specific viscosity of deoxyribonucleic acid was also measured in the presence and absence of test samples. […]
Also, the emission spectral titration for all compounds was also carried out at a fixed concentration (25 μM) of BSA with an incremental concentration of substances (0–25 µM)

## NCC[C@H](O)C(=O)N[C@@H]1C[C@H](N)[C@@H](O[C@H]2O[C@H](CN)[C@@H](O)[C@H](O)[C@H]2O)[C@H](O)[C@H]1O[C@H]1O[C@H](CO)[C@@H](O)[C@H](N)[C@H]1O [Amikacin, amikacin, reference compound]
[1]
  Inhibition%: 75%
  Diameter of clear zone inhibition: 24 mm
Staphylococcus Aureus
  Inhibition%: 70%
  Diameter of clear zone inhibition: 20 mm
Shigella flexneri
  Inhibition%: 70%
  Diameter of clear zone inhibition: 20 mm
Pseudomonas aeruginosa
  Inhibition%: 70%
  Diameter of clear zone inhibition: 20 mm
Bacillus cereu
  Inhibition%: 70%
  Diameter of clear zone inhibition: 20 mm
[2]
  Inhibition%: 73%
  Diameter of clear zone inhibition: 22 mm
Escherichia coli
  Inhibition%: 73%
  Diameter of clear zone inhibition: 22 mm

## C[C@@H]1[C@H](O)[C@@H](C)/C=C/C=C/C=C/C=C/C=C/C=C/C=C/[C@H](O[C@@H]2O[C@H](C)[C@@H](O)[C@H](N)[C@@H]2O)C[C@@H]2O[C@](O)(C[C@@H](O)C[C@@H](O)[C@H](O)CC[C@@H](O)C[C@@H](O)CC(=O)O[C@H]1C)C[C@H](O)[C@H]2C(=O)O [Amphotericin B, amphotericin B, reference compound]
Candida albicans
  Inhibition%: 65%
  Diameter of clear zone inhibition: 17 mm
Aspergillus niger
  Inhibition%: 60%
  Diameter of clear zone inhibition: 15 mm
Mucor indicus
  Inhibition%: 65%
  Diameter of clear zone inhibition: 17 mm

## O=C1O[C@H]([C@@H](O)CO)C(O)=C1O [Ascorbic acid, ascorbic acid, reference compound]
[3]; 40 µM
  % Inhibition, nitric oxide: 28.55%
[3]; 80 µM
  % Inhibition, nitric oxide: 35.75%
[3]; 120 µM
  % Inhibition, nitric oxide: 43.65%
[3]; 160 µM
  % Inhibition, nitric oxide: 52.68%
[3]; 200 µM
  % Inhibition, nitric oxide: 63.72%
[3]; 240 µM
  % Inhibition, nitric oxide: 72.73%
[4]
  IC50: 80 µM
[4]; 40 µM
  % Inhibition, DPPH: 41.63%
[4]; 80 µM
  % Inhibition, DPPH: 53.74%
[4]; 120 µM
  % Inhibition, DPPH: 58.95%
[4]; 160 µM
  % Inhibition, DPPH: 70.86%
[4]; 200 µM
  % Inhibition, DPPH: 82.75%
[4]; 240 µM
  % Inhibition, DPPH: 85.65%
[5]; 40 µM
  % Inhibition, superoxide: 29.64%
[5]; 80 µM
  % Inhibition, superoxide: 41.72%
[5]; 120 µM
  % Inhibition, superoxide: 55.63%
[5]; 160 µM
  % Inhibition, superoxide: 66.75%
[5]; 200 µM
  % Inhibition, superoxide: 72.55%
[5]; 240 µM
  % Inhibition, superoxide: 84.85%
[6]
  IC50: 160 µM
[6]; 40 µM
  % Inhibition, hydroxyl radical: 20.73%
[6]; 80 µM
  % Inhibition, hydroxyl radical: 36.46%
[6]; 120 µM
  % Inhibition, hydroxyl radical: 47.87%
[6]; 160 µM
  % Inhibition, hydroxyl radical: 59.65%
[6]; 200 µM
  % Inhibition, hydroxyl radical: 65.64%
[6]; 240 µM
  % Inhibition, hydroxyl radical: 78.83%

## N.N.[Cl][Pt][Cl] [Cisplatin, cisplatin, reference compound]
HepG2
  IC50: 22.9 ± 1.1 µM
MCF-7
  IC50: 20.2 ± 1 µM
A549
  IC50: 31.9 ± 1.6 µM
NHDF
  IC50: 26.9 ± 1.3 µM

## CC[n+]1c(-c2ccccc2)c2cc(N)ccc2c2ccc(N)cc21 [EB, ethidium bromide, reference compound]
CT-DNA [7]
  ΔTm: 13 °C
CT-DNA [8]
  Slope of (η/η0)^1/3 vs [compound]/[DNA]: 1.215
CT-DNA [8]; [complex]/[DNA] = 0.2
  Relative specific viscosity (η/η0)^1/3: 1.01
CT-DNA [8]; [complex]/[DNA] = 0.4
  Relative specific viscosity (η/η0)^1/3: 1.35
CT-DNA [8]; [complex]/[DNA] = 0.6
  Relative specific viscosity (η/η0)^1/3: 1.63
CT-DNA [8]; [complex]/[DNA] = 0.8
  Relative specific viscosity (η/η0)^1/3: 1.82
CT-DNA [8]; [complex]/[DNA] = 1.0
  Relative specific viscosity (η/η0)^1/3: 1.99

## CC(=O)N1CCN(c2ccc(OCC3COC(Cn4ccnc4)(c4ccc(Cl)cc4Cl)O3)cc2)CC1 (centres unmarked) [Ketoconazole, ketoconazole, reference compound]
Candida albicans
  Inhibition%: 67%
  Diameter of clear zone inhibition: 18 mm
Aspergillus niger
  Inhibition%: 63%
  Diameter of clear zone inhibition: 16 mm
Mucor indicus
  Inhibition%: 67%
  Diameter of clear zone inhibition: 18 mm

## [H]/N=C(/N)N[C@H]1[C@H](O)[C@@H](O)[C@H](O[C@@H]2O[C@@H](C)[C@](O)(C=O)[C@H]2O[C@@H]2O[C@@H](CO)[C@H](O)[C@@H](O)[C@@H]2NC)[C@@H](N/C(N)=N\[H])[C@@H]1O [Streptomycin, streptomycin, reference compound]
[1]
  Inhibition%: 75%
  Diameter of clear zone inhibition: 24 mm
Staphylococcus Aureus
  Inhibition%: 71%
  Diameter of clear zone inhibition: 21 mm
Shigella flexneri
  Inhibition%: 76%
  Diameter of clear zone inhibition: 25 mm
Pseudomonas aeruginosa
  Inhibition%: 71%
  Diameter of clear zone inhibition: 21 mm
Bacillus cereu
  Inhibition%: 71%
  Diameter of clear zone inhibition: 21 mm
[2]
  Inhibition%: 77%
  Diameter of clear zone inhibition: 26 mm
Escherichia coli
  Inhibition%: 75%
  Diameter of clear zone inhibition: 24 mm
